Patent US9375519B2, “Bioerodable poly(etheresteramides) and medical article uses” (SurModics, Inc., priority 2012, dated 2016)
“Also recorded” adds a separate entry of the source. Counter-ions that a name gives are not always drawn.

Test: Analysis of monomer degradation in deuterated water by NMR (free phenylalanine)
Format: physicochemical
Settings: deuterated water at pH 4, 7 or 11, room temperature
Description: Monomers of formula II were evaluated for degradation in water at basic, neutral, and acidic pH conditions.
NMR indicated an increasing presence of free phenylalanine, a degradation byproduct, in solution over time (FIG. 1). […] This is consistent with hydrolysis of the ester bond in the Phe-TEG monomer.
Monomers were placed in deuterated water (adjusted to pH 4, 7, or 11 with DCl or NaOD) in an NMR tube and incubated at room temperature. NMR was used to detect the presence of free phenylalanine, a degradation byproduct, in the aqueous phase (see FIG. 1).

## NC(Cc1ccccc1)C(=O)OCCOCCOCCOCCOC(=O)C(N)Cc1ccccc1 (stereo not shown) [Phe-TEG, di-p-toluenesulfonic salt of bis-(phenylalanine)-tetraethylene glycol diester]
  degradation of monomer in water (free phenylalanine in solution over time by NMR): showed evidence of degradation; also recorded: larger under basic conditions than neutral or acidic
